Reference: PubChem BioAssay AID2060490 (Molecular Pharmacology Branch, DTP, NCI, 2025)
“And” between values parts separate entries of the source, which are not always exact repeats. Equal entries are not always repeated.

System: 885512-296-R-J2-PDC complex spheroid viability
Assay: Anticancer human tumor 885512-296-R-J2-PDC patient-derived breast carcinoma cell line growth inhibition [GQUAD]
Conditions: for viability, T/C: stronger effect = lower value
Source text: DNA G-quadruplex Stabilizer Agents in Combinations in Complex Spheroids
A high-throughput screen of multi-cell type tumor spheroids was designed to identify active combinations of DNA G-quadruplex stabilizer agents and targeted small molecules. Complex spheroids include a stromal component modeled by human endothelial cells (HUVEC) and fibroblasts modeled by human mesenchymal stem cells (MSCs). The concentration ranges selected for each drug and investigational agent were based upon clinically achievable concentrations if the clinical Cmax of the agent was known.
Compounds. The drugs and investigational agents: pidnarulex (CX-5461; NSC782164), APTO-253 (NSC789042), BRACO-19 (NSC847499), peposertib (NSC802822), ceralasertib (NSC780249), elimusertib (NSC800525), camonsertib (NSC841442), AZD-1390 (NSC803789), olaparib (NSC753686), talazoparib (NSC767125), ART-558 (NSC835418), sotorasib (NSC818433), MRTX-1133 (NSC836407), SN-38 (NSC673596), topotecan (NSC609699), etoposide (NSC141540), doxorubicin (NSC123127), gemcitabine (NSC613327), 5-fluorouracil (NSC19893), paclitaxel (NSC125973), vemurafenib (NSC761431), panobinostat (NSC761190), R-306465 (JNJ-16241199; NSC773264), adavosertib (NSC754352), TP-3654 (NSC805149), carboplatin (NSC241240), KSQ-4279 (NSC840948), and staurosporine (NSC755774) were obtained from the National Cancer Institute (NCI) Developmental Therapeutics Program Chemical Repository (34). The FDA-approved anticancer drug set is available from the NCI Developmental Therapeutics Program. […] The stock solutions were prepared in dimethyl sulfoxide (DMSO, Sigma-Aldrich, St. Louis, MO, cat. D2650) at 800-fold the tested concentration and stored at -70 degrees C prior to their use. All drugs and investigational agents were tested over a range starting from a high concentration at or near the clinical Cmax and decreasing in half-log increments. If the clinical Cmax for an agent had not been determined, the highest concentration tested was 10 microM.
2.3 Cell Culture. All cells were maintained in an incubator at 37 degrees C and 5% CO2 with 95% humidity. The PDC lines were cultured according to standard operating procedures established by the NCI PDMR. All PDCs were thawed and cultured in Matrigel-coated flasks prepared with a working solution of 1X Ham's F-12 nutrient mix, without supplementation (Invitrogen, cat. 11765054), 100 U/mL penicillin-streptomycin (Invitrogen, cat. 15140122), and 2.5% Matrigel (Corning Inc., cat. 354248) for the first three passages. The 857933-349-R-J2-PDC line was cultured in 6C/Colon 1B media, which includes advanced DMEM/F-12 (Thermo Fisher Scientific, cat. 12634028), 10 mM HEPES (Thermo Fisher Scientific, cat. 15630080), 1X GlutaMAX supplement (Thermo Fisher Scientific, cat. 35050061), 0.1 mg/mL primocin (InvivoGen, cat. ant-pm-2), 10% defined fetal bovine serum, heat inactivated (HyClone Laboratories Inc., cat. SH30070.03HI), 50% L-WRN conditioned media (ATCC, cat. CRL-3276), 1.25 mM N-Acetyl-L-cysteine (Sigma-Aldrich, cat. A9165), 10 mM nicotinamide (Sigma-Aldrich, cat. N0636), 1X B-27 supplement (Thermo Fisher Scientific, cat. 17504044), 1X N-2 supplement (Thermo Fisher Scientific, cat. 17502048), 10 microM Y-27632 dihydrochloride (Tocris Bioscience, cat. 1254), and 50 ng/mL human EGF recombinant protein (Thermo Fisher Scientific, cat. PHG0311). The 485176-168-R4-J1-PDC line was cultured in Panc media, which includes all 6C/Colon 1B media components plus 100 ng/mL human FGF-10 (Thermo Fisher Scientific, cat. 100-26), 500 nM SB-431542 (Selleckchem, cat. S1067), and gastrin (Tocris, cat. 3006).
[…]

[1] = curve of first compound, second compound 0.0316 µM
[2] = curve of first compound, second compound 0.1 µM
[3] = curve of first compound, second compound 0.316 µM
[4] = curve of first compound, second compound 1 µM
[5] = curve of first compound, second compound 3.16 µM
[6] = curve of first compound, second compound 10 µM
[7] = second compound 0.0316 µM, first compound 0.0316 µM
[8] = second compound 0.0316 µM, first compound 0.1 µM
[9] = second compound 0.0316 µM, first compound 0.316 µM
[10] = second compound 0.0316 µM, first compound 1 µM
[11] = second compound 0.0316 µM, first compound 3.16 µM
[12] = second compound 0.0316 µM, first compound 10 µM
[13] = second compound 0.1 µM, first compound 0.0316 µM
[14] = second compound 0.1 µM, first compound 0.1 µM
[15] = second compound 0.1 µM, first compound 0.316 µM
[16] = second compound 0.1 µM, first compound 1 µM
[17] = second compound 0.1 µM, first compound 3.16 µM
[18] = second compound 0.1 µM, first compound 10 µM
[19] = second compound 0.316 µM, first compound 0.0316 µM
[20] = second compound 0.316 µM, first compound 0.1 µM
[21] = second compound 0.316 µM, first compound 0.316 µM
[22] = second compound 0.316 µM, first compound 1 µM
[23] = second compound 0.316 µM, first compound 3.16 µM
[24] = second compound 0.316 µM, first compound 10 µM
[25] = second compound 1 µM, first compound 0.0316 µM
[26] = second compound 1 µM, first compound 0.1 µM
[27] = second compound 1 µM, first compound 0.316 µM
[28] = second compound 1 µM, first compound 1 µM
[29] = second compound 1 µM, first compound 3.16 µM
[30] = second compound 1 µM, first compound 10 µM
[31] = second compound 3.16 µM, first compound 0.0316 µM
[32] = second compound 3.16 µM, first compound 0.1 µM
[33] = second compound 3.16 µM, first compound 0.316 µM
[34] = second compound 3.16 µM, first compound 1 µM
[35] = second compound 3.16 µM, first compound 3.16 µM
[36] = second compound 3.16 µM, first compound 10 µM
[37] = second compound 10 µM, first compound 0.0316 µM
[38] = second compound 10 µM, first compound 0.1 µM
[39] = second compound 10 µM, first compound 0.316 µM
[40] = second compound 10 µM, first compound 1 µM
[41] = second compound 10 µM, first compound 3.16 µM
[42] = second compound 10 µM, first compound 10 µM
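Note: spheroids exposed to the compounds for one week.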
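Throughout, for viability, T/C: percent of tumor spheroid viability relative to DMSO vehicle control wells.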

Compound: Nc1ccn(C2OC(CO)C(O)C2(F)F)c(=O)n1 (stereo not given) + Cc1[nH]c2ccc(F)cc2c1-c1nc2c3cccnc3c3ncccc3c2[nH]1
- IC50 [1]: < 0.0316 µM
- IC50 [2]: < 0.0316 µM
- IC50 [3]: < 0.0316 µM
- IC50 [4]: < 0.0316 µM
- IC50 [5]: < 0.0316 µM
- IC50 [6]: < 0.0316 µM
- viability, T/C [7]: 14.6%
- viability, T/C [8]: 3.03%
- viability, T/C [9]: 2.43%
- viability, T/C [10]: 3.01%
- viability, T/C [11]: 3.2%
- viability, T/C [12]: 2.56%
- viability, T/C [13]: 16.3%
- viability, T/C [14]: 3.26%
- viability, T/C [15]: 3.63%
- viability, T/C [16]: 3.04%
- viability, T/C [17]: 3%
- viability, T/C [18]: 3.74%
- viability, T/C [19]: 14.6%
- viability, T/C [20]: 3.44%
- viability, T/C [21]: 3.02%
- viability, T/C [22]: 2.57%
- viability, T/C [23]: 2.96%
- viability, T/C [24]: 3.36%
- viability, T/C [25]: 8.48%
- viability, T/C [26]: 2.45%
- viability, T/C [27]: 2.51%
- viability, T/C [28]: 2.76%
- viability, T/C [29]: 2.94%
- viability, T/C [30]: 2.65%
- viability, T/C [31]: 2.21%
- viability, T/C [32]: 1.43%
- viability, T/C [33]: 1.74%
- viability, T/C [34]: 1.98%
- viability, T/C [35]: 1.96%
- viability, T/C [36]: 1.86%
- viability, T/C [37]: 1.33%
- viability, T/C [38]: 1.29%
- viability, T/C [39]: 1.17%
- viability, T/C [40]: 1.35%
- viability, T/C [41]: 1.44%
- viability, T/C [42]: 1.08%

Compound: Nc1ccn(C2OC(CO)C(O)C2(F)F)c(=O)n1 (stereo not given) + CN(C)c1ccc(Nc2c3ccc(NC(=O)CCN4CCCC4)cc3nc3cc(NC(=O)CCN4CCCC4)ccc23)cc1
- IC50 [1]: < 0.0316 µM
- IC50 [2]: < 0.0316 µM
- IC50 [3]: < 0.0316 µM
- IC50 [4]: < 0.0316 µM
- IC50 [5]: < 0.0316 µM
- IC50 [6]: < 0.0316 µM
- viability, T/C [7]: 9.1%
- viability, T/C [8]: 2.14%
- viability, T/C [9]: 2.5%
- viability, T/C [10]: 3.16%
- viability, T/C [11]: 3.03%
- viability, T/C [12]: 2.58%
- viability, T/C [13]: 7.88%
- viability, T/C [14]: 2.78%
- viability, T/C [15]: 2.67%
- viability, T/C [16]: 2.57%
- viability, T/C [17]: 2.19%
- viability, T/C [18]: 2.48%
- viability, T/C [19]: 6.92%
- viability, T/C [20]: 2.8%
- viability, T/C [21]: 3.02%
- viability, T/C [22]: 2.49%
- viability, T/C [23]: 2.88%
- viability, T/C [24]: 2.91%
- viability, T/C [25]: 7.45%
- viability, T/C [26]: 2.12%
- viability, T/C [27]: 2.71%
- viability, T/C [28]: 2.43%
- viability, T/C [29]: 2.45%
- viability, T/C [30]: 2.25%
- viability, T/C [31]: 8.52%
- viability, T/C [32]: 3.21%
- viability, T/C [33]: 2.06%
- viability, T/C [34]: 2.2%
- viability, T/C [35]: 2.24%
- viability, T/C [36]: 1.81%
- viability, T/C [37]: 7.17%
- viability, T/C [38]: 2.02%
- viability, T/C [39]: 2.12%
- viability, T/C [40]: 1.7%
- viability, T/C [41]: 1.53%
- viability, T/C [42]: 1.39%

Compound: CC(=O)O[C@H]1C(=O)[C@@]2(C)[C@H]([C@H](OC(=O)c3ccccc3)[C@]3(O)C[C@H](OC(=O)[C@H](O)[C@@H](NC(=O)c4ccccc4)c4ccccc4)C(C)=C1C3(C)C)[C@]1(OC(C)=O)CO[C@@H]1C[C@@H]2O
- viability, T/C (compound 0.0316 µM): 79.3% and 9.94% and 12.2%
- viability, T/C (compound 0.316 µM): 21.6% and 4.6% and 3.99%
- viability, T/C (compound 1 µM): 2.5% and 3.51% and 4.61%
- viability, T/C (compound 3.16 µM): 0.25% and 3.46% and 2.82%
- viability, T/C (compound 10 µM): 0.14% and 3.66% and 4.04%
- IC50 (curve of compound): 0.113 µM and < 0.0316 µM

Compound: O=C(NO)c1cnc(N2CCN(S(=O)(=O)c3ccc4ccccc4c3)CC2)nc1
- viability, T/C (compound 0.316 µM): 3.89% and 20.5% and 27.5%
- viability, T/C (compound 1 µM): 2.64% and 2.67% and 5.87%
- viability, T/C (compound 3.16 µM): 4.12% and 0.29% and 0.35%
- viability, T/C (compound 10 µM): 3.42% and 1.01% and 0.1%
- IC50 (curve of compound): < 0.0316 µM and 0.121 µM and 0.187 µM
